{"source": "paper PMC6127857", "about": "(Journal of structural biology, 2018)", "key": {"AmpKR2 [1]": {"molecular_target": "AmpKR2 (Streptomyces nodosus, UniProt Q93NW7, G2883T/Q2892H)", "assay": "X-ray crystal structure, […] Å, co-crystallised", "type": "binding", "details": "ternary complex with 2-methyl-3-oxopentanoyl-pantetheine; 3 mM NADP+"}, "AmpKR2 [2]": {"molecular_target": "AmpKR2 (Streptomyces nodosus, UniProt Q93NW7)", "assay": "X-ray crystal structure, […] Å, co-crystallised", "type": "binding", "details": "ternary complex with 2-methyl-3-oxopentanoyl-pantetheine; 3 mM NADP+"}}}
{"molecule": "NC(=O)c1ccc[n+]([C@@H]2O[C@H](COP(=O)(O)OP(=O)(O)OC[C@H]3O[C@@H](n4cnc5c(N)ncnc54)[C@H](OP(=O)(O)O)[C@@H]3O)[C@@H](O)[C@H]2O)c1", "note": "[NADP^+]", "values": [{"measurement": "X-ray crystal structure, 1.96 Å, co-crystallised", "setting": "AmpKR2 [1]", "value": "both wild type AmpKR2 and its G355T/Q364H mutant"}, {"measurement": "X-ray crystal structure, 1.80 Å, co-crystallised", "setting": "AmpKR2 [2]", "value": "well-defined electron density for NADP^+ and 2-methyl-3-oxopentanoyl-pantetheine was observed in the active sites"}]}
